From PMC10836395, “Investigation of how gate residues in the main channel affect the catalytic activity of Scytalidium thermophilum catalase” (Acta Crystallographica. Section D, Structural Biology, 2024)
Numbering of substitutions follows the chain as printed. Marks after values point to notes of the source that are not given here.

Legend:
CATPO [1] = biological target: T1, CATPO (Scytalidium thermophilum (Humicola insolens), UniProt M4GGR5); assay: Substrate-specificity analysis of the phenol oxidase activity; format: biochemical
T1 sequence (M4GGR5 entry or part of it): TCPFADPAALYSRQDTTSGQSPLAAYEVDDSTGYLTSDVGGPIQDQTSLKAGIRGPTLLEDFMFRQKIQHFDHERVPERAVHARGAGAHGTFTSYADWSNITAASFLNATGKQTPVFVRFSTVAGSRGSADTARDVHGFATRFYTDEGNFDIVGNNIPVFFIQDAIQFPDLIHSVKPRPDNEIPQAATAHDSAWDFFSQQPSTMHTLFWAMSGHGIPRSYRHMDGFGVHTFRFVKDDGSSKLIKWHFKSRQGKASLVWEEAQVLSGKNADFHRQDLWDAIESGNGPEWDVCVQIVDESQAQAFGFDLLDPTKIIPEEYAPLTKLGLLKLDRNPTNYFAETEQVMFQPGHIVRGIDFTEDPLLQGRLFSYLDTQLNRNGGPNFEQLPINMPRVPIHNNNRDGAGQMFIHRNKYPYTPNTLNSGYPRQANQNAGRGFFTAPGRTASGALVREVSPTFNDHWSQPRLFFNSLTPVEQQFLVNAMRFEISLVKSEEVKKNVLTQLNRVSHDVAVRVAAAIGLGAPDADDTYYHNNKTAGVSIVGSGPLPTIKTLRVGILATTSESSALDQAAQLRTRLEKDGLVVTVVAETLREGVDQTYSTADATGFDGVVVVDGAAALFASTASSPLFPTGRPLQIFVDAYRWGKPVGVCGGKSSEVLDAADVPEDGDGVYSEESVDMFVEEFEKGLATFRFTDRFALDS

CATPO E484A variant = CATPO E484A variant (Scytalidium thermophilum (Humicola insolens), UniProt M4GGR5, E503A); assay: as above; format: biochemical
CATPO E484A variant, sequence (M4GGR5 entry or part of it E503A): as the sequence (M4GGR5 entry or part of it) above

CATPO E484D variant = CATPO E484D variant (Scytalidium thermophilum (Humicola insolens), UniProt M4GGR5, E503D); format: biochemical
CATPO E484D variant, sequence (M4GGR5 entry or part of it E503D): as the sequence (M4GGR5 entry or part of it) above

CATPO E484I variant = CATPO E484I variant (Scytalidium thermophilum (Humicola insolens), UniProt M4GGR5, E503I); format: biochemical
CATPO E484I variant, sequence (M4GGR5 entry or part of it E503I): as the sequence (M4GGR5 entry or part of it) above

CATPO T188D variant = CATPO T188D variant (Scytalidium thermophilum (Humicola insolens), UniProt M4GGR5, T207D); format: biochemical
CATPO T188D variant, sequence (M4GGR5 entry or part of it T207D): as the sequence (M4GGR5 entry or part of it) above

CATPO T188F variant [2] = biological target: T2, CATPO T188F variant (Scytalidium thermophilum (Humicola insolens), UniProt M4GGR5, T207F); format: biochemical
T2 sequence (M4GGR5 entry or part of it T207F): as the sequence (M4GGR5 entry or part of it) above

CATPO T188I variant [3] = biological target: T3, CATPO T188I variant (Scytalidium thermophilum (Humicola insolens), UniProt M4GGR5, T207I); format: biochemical
T3 sequence (M4GGR5 entry or part of it T207I): as the sequence (M4GGR5 entry or part of it) above

CATPO [4] = biological target: T1, CATPO; assay: Inhibition of catechol oxidation; format: biochemical; settings: catechol oxidation by CATPO; catechol 1 to 100 mM; read-out: K i
CATPO T188F variant [5] = biological target: T2, CATPO T188F variant; assay: biochemical
CATPO T188I variant [6] = biological target: T3, CATPO T188I variant; assay: biochemical
E484A = biological target: T4, E484A (Mycothermus thermophilus, UniProt M4GGR5, E503A); assay: Spectrophotometric phenol oxidase assay without H2O2 at pH 7.0 and 60 °C, initial rates fitted to the Michaelis-Menten equation.; format: biochemical; settings: read-out: Phenol oxidase K m; n = 3
T4 construct: recombinant, pET-28-TEV-CATPO; contains heme b; Rz 0.8
T4 sequence (M4GGR5 20-717 E503A): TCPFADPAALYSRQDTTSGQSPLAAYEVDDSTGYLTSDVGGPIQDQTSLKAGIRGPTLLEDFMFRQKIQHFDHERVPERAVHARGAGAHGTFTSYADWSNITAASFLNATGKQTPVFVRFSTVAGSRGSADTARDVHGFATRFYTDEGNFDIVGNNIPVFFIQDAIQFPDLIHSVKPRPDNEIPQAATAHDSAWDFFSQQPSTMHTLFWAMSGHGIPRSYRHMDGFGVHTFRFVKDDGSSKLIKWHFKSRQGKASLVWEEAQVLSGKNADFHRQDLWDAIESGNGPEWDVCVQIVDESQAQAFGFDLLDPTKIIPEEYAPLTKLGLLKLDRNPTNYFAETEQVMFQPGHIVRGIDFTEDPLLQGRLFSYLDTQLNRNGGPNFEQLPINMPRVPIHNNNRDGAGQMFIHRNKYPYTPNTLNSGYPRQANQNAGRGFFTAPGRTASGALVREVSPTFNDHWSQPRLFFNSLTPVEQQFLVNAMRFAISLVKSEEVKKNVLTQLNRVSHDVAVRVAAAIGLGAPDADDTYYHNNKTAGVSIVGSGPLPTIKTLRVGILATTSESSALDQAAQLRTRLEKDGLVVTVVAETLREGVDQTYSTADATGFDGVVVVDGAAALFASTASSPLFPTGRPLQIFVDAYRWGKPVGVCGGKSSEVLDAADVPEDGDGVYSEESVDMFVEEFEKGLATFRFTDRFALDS
Experimental: (§1) All inhibition assays were performed in triplicate.

T188D = biological target: T5, T188D (Mycothermus thermophilus, UniProt M4GGR5, T207D); assay: as above; format: biochemical; settings: read-out: Phenol oxidase K m; n = 3
T5 construct: recombinant, pET-28-TEV-CATPO; contains heme b; Rz 0.5
T5 sequence (M4GGR5 20-717 T207D): T4 sequence (M4GGR5 20-717 E503A) with T188D, A484E
Experimental: as §1

Oc1cccc(O)c1O [Pyrogallol, pyrogallol]
V max (CATPO [1]): 18450 ± 451 mM/min | k cat/K m (CATPO [1]): 960 ± 65 s^−1 M^−1 (×10^2) | V max (CATPO E484A variant): 50000 ± 156 mM/min | k cat/K m (CATPO E484A variant): 6000 ± 50 s^−1 M^−1 (×10^2) | K m (CATPO E484A variant; pH 7.0 (ABTS pH 5.0), 60°C): 36 ± 0.7 mM | V max (CATPO E484D variant): 16800 ± 300 mM/min | k cat/K m (CATPO E484D variant): 600 ± 50 s^−1 M^−1 (×10^2) | K m (CATPO E484D variant; pH 7.0 (ABTS pH 5.0), 60°C): 40 ± 0.5 mM | V max (CATPO E484I variant): 20300 ± 330 mM/min | k cat/K m (CATPO E484I variant): 3060 ± 30 s^−1 M^−1 (×10^2) | K m (CATPO E484I variant; pH 7.0 (ABTS pH 5.0), 60°C): 40 ± 1.1 mM | V max (CATPO T188D variant): 15000 ± 150 mM/min | k cat/K m (CATPO T188D variant): 5710 ± 200 s^−1 M^−1 (×10^2) | K m (CATPO T188D variant; pH 7.0 (ABTS pH 5.0), 60°C): 41 ± 1.0 mM | V max (CATPO T188F variant [2]): 28100 ± 760 mM/min | k cat/K m (CATPO T188F variant [2]): 3930 ± 250 s^−1 M^−1 (×10^2) | K m (CATPO T188F variant [2]; pH 7.0 (ABTS pH 5.0), 60°C): 37 ± 0.5 mM | V max (CATPO T188I variant [3]): 27400 ± 310 mM/min | k cat/K m (CATPO T188I variant [3]): 3470 ± 256 s^−1 M^−1 (×10^2) | K m (CATPO T188I variant [3]; pH 7.0 (ABTS pH 5.0), 60°C): 38 ± 0.5 mM | Ki (CATPO [4]): 4.2 ± 0.8 mM | Ki (CATPO T188F variant [5]): 64 ± 6 mM | Ki (CATPO T188I variant [6]): 62 ± 2.5 mM | K m (E484A): 36 ± 0.7 mM | K m (T188D): 41 ± 1 mM
